The source of these data is US5386017A, “Alkenes for producing chemiluminescent 1, 2-dioxetane compounds” (priority 1990, dated 1995).

The format of series [1] is physicochemical. To be noted: for Ea: activation energy for decomposition in xylene; for log A / k (sec^-1) at 25° C. / t1/2 at 25° C.: decomposition in xylene. Here is the method:
Rates of dioxetane decomposition were monitored by the decay of chemiluminescence of aerated solutions. A cylindrical Pyrex vial equipped with magnet stir bar was filled with 3-4 mL of the reaction solvent, sealed with a Teflon-lined screw cap and placed in the thermostatted sample block of the chemiluminescence-measuring apparatus (Black Box). Temperature control was provided by an external circulating water bath. Appropriate values for the instrument gain and optical slit size were selected. […]. The vial was sealed with a Teflon-lined screw cap to prevent evaporation when high temperatures were used. Measurement of the signal was begun by opening the shutter. The chemiluminescent decay was generally recorded for at least three half-lives. Calculation of the first-order rate constant, k, from the In(Intensity) vs. time data was performed by a computer program utilizing a standard least-squares treatment. The correlation coefficient, r, was typically at least 0.999 and varied less than 5% between replicate samples. The observed rate was not measurably concentration dependent.
Activation parameters for decomposition of the dioxetanes were calculated from plots of In k vs. l/T (Arrhenius eq.) or In k/t vs. l/T (Eyring eq.) by a standard least-squares linear regression analysis.

Series [2] concerns Aryl esterase (carboxylic ester hydrolase) from porcine liver. Description: Enzymatic triggering of chemiluminescence with aryl esterase. It counts as biochemical. To be noted: for effect of competing substrate on light intensity of dioxetane 2e reaction: 10 μL of […] added at maximum emission, pH 7.6 phosphate buffer, 37° C. As to the method: A secondary stock solution of the acetate-protected dioxetane 2e was made by evaporating an aliquot of the methylene chloride stock equivalent to 10 micromoles of dioxetane and dissolving in 5.0 mL of 2-methoxyethanol to give a final concentration of 0.002M. […] Buffer solutions prepared in distilled water were 0.05M phosphate pH 7.6 and 8.0, 0.02M Tris (tris-hydroxymethylaminomethane maleate) pH 7.6, and pH 9.0 phosphate/borate buffer. Aryl esterase (also called carboxylic ester hydrolase (P-5221)) from porcine liver was purchased from Sigma Chemical Co. as a suspension of 11 mg of protein per mL in 3.2M (NH4)2 SO4 solution pH 8.0. Each mg of protein is equivalent to 260 Units, where 1 Unit is defined as the amount which will hydrolyze 1 micromole of ethyl butyrate in 1 minute at pH 8.0, 25° C. […] Injection of 1 μL of (0.26 units) of aryl esterase to the stirred solution caused a chemiluminescent signal to appear. The intensity reached a maximum at about 3 minutes and decayed over a 30 minute period.
3.) When distilled water was substituted for the Tris buffer, no chemiluminescence signal was observed, but on adding Tris buffer to this solution light emission similar to that above was produced. […] Addition of untreated enzyme preparation to this solution again produced light. […] The emission could be totally extinguished by addition of sufficient SDS. The decrease in light emission is not due to photophysical quenching of the excited state since thermal decomposition in the same solvent system at elevated temperatures results in readily detectable chemiluminescence.
This type of behavior explains the effect of the addition of the known esterase substrates α-naphthyl acetate and β-naphthyl acetate. […] A solution of 25 μL of the dioxetane stock (0.002M) in 3 mL of pH 7.6 phosphate buffer maintained at 37° C. was treated wtih 5μL of the enzyme to initiate the chemiluminescence. At the point of maximum emission 10 μL of 0.011M solution of either α- or β-naphthyl acetate were added.

For series [3] the following is noted: 25° C.; cited from earlier work.
The mark [4] stands for this setting: 0.26 units aryl esterase, pH 7.6 Tris buffer, 25° C.

For `COC1(c2ccc3cc(O[Si](C)(C)C(C)(C)C)ccc3c2)OOC12C1CC3CC(C1)CC2C3` (centres unmarked) [Dioxetane 2c], in series [1], the Ea was 27.0, the “log A” value was 11.7, the “k (sec^-1) at 25° C.” value was found to be 8.72e-09 s⁻¹ and the “t1/2 at 25° C.” value is given as 2.5 yrs.
On to `CCCCCCCCCCCCOS(=O)(=O)[O-].[Na+]` [sodium lauryl sulfate (SDS), sodium lauryl sulfate, reference compound], for which the “effect of enzyme inhibitor on light emission” value in series [2] (added at maximum emission, Tris buffer, 1.5 μL enzyme) is given as “irreversible decrease in the intensity”.
In the case of `COC1(c2ccc3cc(O)ccc3c2)OOC12C1CC3CC(C1)CC2C3` (centres unmarked) [Dioxetane 2b, 4-(6-Hydroxy-2-naphthyl)-4-methoxyspiro[1,2-dioxetane-3,2'-adamantane]], in series [1], the Ea is reported as 29.7, the “log A” value came out at 13.3, the “k (sec^-1) at 25° C.” value was found to be 3.83e-09 s⁻¹ and the “t1/2 at 25° C.” value amounted to 5.7 yrs.
`CC(=O)Oc1ccc2ccccc2c1` [β-naphthyl acetate, reference compound]: the “effect of competing substrate on light intensity of dioxetane 2e reaction” value in series [2] is recorded as “rapid decrease in light intensity was noted followed by restoration of the original intensity within less than one minute”.
For the molecule `COC1(c2ccc3ccccc3c2)OOC12C1CC3CC(C1)CC2C3` (centres unmarked) [Dioxetane 2a, 4-Methoxy-4-(2-naphthyl)spiro[1,2-dioxetane-3,2'-adamantane]], in series [1], the Ea was 29.7, the “log A” value is 13.2, the “k (sec^-1) at 25° C.” value was 3.17e-09 s⁻¹ and the “t1/2 at 25° C.” value turned out to be 6.9 yrs.
As for `Oc1ccc(C23OCCOC2(c2ccccc2)OO3)cc1` (centres unmarked) [deprotonated dioxetane (X=O^-)], the “decomposition rate relative to the protonated form (X=OH)” value in series [3] is 5.7×10^6 times faster.
Regarding `CC(=O)Oc1cccc2ccccc12` [α-naphthyl acetate, reference compound], in series [2], the “effect of competing substrate on light intensity of dioxetane 2e reaction” value is recorded as “rapid decrease in light intensity was noted followed by restoration of the original intensity within less than one minute”.
Consider `COC1(c2ccc3cc(OC(C)=O)ccc3c2)OOC12C1CC3CC(C1)CC2C3` (centres unmarked) [Dioxetane 2e, 4-(6-Acetoxy-2-naphthyl)-4-methoxyspiro[1,2-dioxetane-3,2' -adamantane]], for which the “chemiluminescence signal without enzyme” value in series [2] (0.3 μmol in 3.0 mL pH 7.6 Tris buffer, 25° C., before enzyme) was “no chemiluminescence signal was detected”. Also, in series [2] (setting [4]), the “period of decay of chemiluminescence” value is 30 min and the “time to maximum chemiluminescence intensity” value is “about 3 minutes”. Further, the “duration of thermal chemiluminescence” value in series [1] (aliquot in 3 mL o-xylene at 95° C.) is given as “persisted for several hours”.
